The values that follow come from patent publication US20210290597A1, “METHOD OF TREATING A CONDITION ASSOCIATED WITH NEURODEGENERATION USING INHIBITORS OF OAT3” (Neuropore Therapies, Inc., priority 2018, published 2021).

Where only a bound is given, the exact number is not on record here.

In assay [1] the test system is Translocator Protein (18 kDa) (TSPO). Nature of the assay: TSPO immunofluorescence in cortex, L61 ASYN transgenic mice, 3 month study. Format: in vivo. Particulars: 5 and 10 mg/kg i.p. daily, 3 months. As for the experimental part:
Briefly, Compound 1 was injected into L61 ASYN transgenic mice and non-transgenic control mice (i.p., once daily) at doses of 5 and 10 mg/kg for 3 months (79 total mice, n=14-17 mice per treatment group). The vehicle control consisted of a solution containing 5% DMSO+20% Cremphor EL+0.9% normal saline. The baseline grip strength of mice was evaluated prior to starting treatments for the 3 month study, and then re-evaluated following 70 days of treatment with vehicle or Compound 1 (5 or 10 mg/kg, i.p. injection daily).
Neuroinflammation is associated with increased expression of the 18-kDa translocator protein (TSPO), which is a marker for inflammation and is present on the mitochondria of activated microglia, astroglia and macrophages (Crawshaw and Robertson 2017). The effects of Compound 1 on the levels of Translocator Protein (18 kDa) (TSPO) were assessed in both L61 ASYN transgenic and non-transgenic mice in the aforementioned 3 month administration study. At the end of the study, the mice were sacrificed, and immunofluoresence (IF) detection of TSPO were assessed in the harvested brain tissues.
The harvested brain tissues were fixed (drop fixed in 4% paraformaldehyde), sectioned using a vibratome, and representative sections were assessed for TSPO with standard immunofluorescence (IF) staining. […]

For a further assay, the target named is T1, human transporter BCRP (Homo sapiens, UniProt Q9UNQ0).
T1 construct: expressed in transfected cells; host or cells: MDCK-II
T1 sequence (Q9UNQ0 1-655): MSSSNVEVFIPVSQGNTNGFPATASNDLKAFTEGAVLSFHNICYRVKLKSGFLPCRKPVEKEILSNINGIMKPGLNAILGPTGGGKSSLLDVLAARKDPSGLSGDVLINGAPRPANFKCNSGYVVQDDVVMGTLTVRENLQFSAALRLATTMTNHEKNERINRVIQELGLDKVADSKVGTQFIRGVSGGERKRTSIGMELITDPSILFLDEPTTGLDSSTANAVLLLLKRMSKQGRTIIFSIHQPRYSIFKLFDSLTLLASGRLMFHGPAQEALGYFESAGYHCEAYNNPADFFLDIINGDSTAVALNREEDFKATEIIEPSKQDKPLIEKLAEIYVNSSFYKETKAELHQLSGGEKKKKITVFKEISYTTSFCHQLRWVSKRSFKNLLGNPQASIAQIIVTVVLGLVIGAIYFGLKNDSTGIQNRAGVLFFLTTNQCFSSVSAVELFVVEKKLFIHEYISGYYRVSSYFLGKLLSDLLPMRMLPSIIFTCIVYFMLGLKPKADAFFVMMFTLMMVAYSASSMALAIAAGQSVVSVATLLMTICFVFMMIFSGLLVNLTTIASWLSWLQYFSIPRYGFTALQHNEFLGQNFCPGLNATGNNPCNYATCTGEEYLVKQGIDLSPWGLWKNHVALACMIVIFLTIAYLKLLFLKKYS
In words: In vitro ion transport assay 1, BCRP. Format: cell-based. Particulars: probe substrate 2 μM [3H]-prazosin. On the procedure:
Compound 1 was studied in the concentration range of 0.1-100 μM for its potency against transport mediated by various transporter proteins. [table]

The target in the next assay is T2, human transporter URAT1 (Homo sapiens, UniProt Q96S37).
T2 construct: expressed in transfected cells; host or cells: MDCK-II
T2 sequence (Q96S37 1-553): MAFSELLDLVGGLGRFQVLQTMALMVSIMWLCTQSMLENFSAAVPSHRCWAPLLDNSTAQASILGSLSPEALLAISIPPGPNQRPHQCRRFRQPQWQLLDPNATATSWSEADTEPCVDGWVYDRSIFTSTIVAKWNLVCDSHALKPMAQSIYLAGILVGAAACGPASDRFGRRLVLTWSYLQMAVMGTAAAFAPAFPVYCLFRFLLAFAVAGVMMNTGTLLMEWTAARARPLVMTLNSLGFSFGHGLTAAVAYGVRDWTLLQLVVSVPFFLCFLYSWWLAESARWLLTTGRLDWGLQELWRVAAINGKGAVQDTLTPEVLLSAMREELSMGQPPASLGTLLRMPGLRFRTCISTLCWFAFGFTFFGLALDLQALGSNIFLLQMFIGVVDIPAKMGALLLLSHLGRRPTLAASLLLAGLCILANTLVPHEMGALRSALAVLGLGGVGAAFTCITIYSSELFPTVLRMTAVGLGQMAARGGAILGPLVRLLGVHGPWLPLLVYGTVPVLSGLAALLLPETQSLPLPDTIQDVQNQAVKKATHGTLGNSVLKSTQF
Nature of the assay: In vitro transport assay 2, URAT1. Format: cell-based. Conditions: 20 μM [14C]-uric acid. As for the experimental part:
Compound 1 was studied in the concentration range of 0.1-10 μM for its potency against transport mediated by various transporter proteins.

`O=S(=O)(c1ccc(-n2cn[nH]c2=S)cc1)c1ccc(Cl)c(C(F)(F)F)c1` [Compound 1, 4-(4-((4-chloro-3-(trifluoromethyl)phenyl)sulfonyl)phenyl)-2,4-dihydro-3H-1,2,4-triazole-3-thione]: the “levels of TSPO in cortex vs vehicle control” value in assay [1] is on record as “significantly decreased”. Also, the IC50 (commonly the midpoint of a concentration-inhibition curve) against human transporter BCRP was 51.5 µM; on human transporter URAT1 it was greater than 10 µM.
